Values after ≈ are worked out from the molar mass of the structure shown. Where two headings read alike, the source gives them in different places.
Legend:
[1] = test system: S. aureus strain isolated from a cystic fibrosis patient; experiment: MIC, CLSI broth microdilution, CF isolate; type: cell-based; settings: Staphylococcus aureus; CLSI broth microdilution; read-out: MIC CF isolate
[2] = test system: Enterococcus faecalis ATCC 29212; experiment: MIC panel (Laboratory Specialists, Inc.), E. faecalis; type: cell-based; settings: ATCC29212, Cmpd. 6, CLSI broth microdilution
[3] = test system: Escherichia coli ATCC 25922; experiment: MIC panel (Laboratory Specialists, Inc.), E. coli; type: cell-based; settings: ATCC25922, read-out: MIC Escherichia coli ATCC 25922 (n = 2), Cmpd. 6, CLSI broth microdilution
[4] = test system: Enterobacter cloacae LSI-2943; experiment: MIC panel (Laboratory Specialists, Inc.), E. cloacae; type: cell-based; settings: LSI2943, Cmpd. 6, CLSI broth microdilution
[5] = target: T1, Nav1.5 Late Current Human Ion Channel (Homo sapiens, UniProt Q14524); experiment: Nav1.5 late current agonist QPatch CiPA assay; type: cell-based; settings: normalized to ATXII response
T1 construct: expressed in transfected cells
T1 sequence (Q14524 whole entry): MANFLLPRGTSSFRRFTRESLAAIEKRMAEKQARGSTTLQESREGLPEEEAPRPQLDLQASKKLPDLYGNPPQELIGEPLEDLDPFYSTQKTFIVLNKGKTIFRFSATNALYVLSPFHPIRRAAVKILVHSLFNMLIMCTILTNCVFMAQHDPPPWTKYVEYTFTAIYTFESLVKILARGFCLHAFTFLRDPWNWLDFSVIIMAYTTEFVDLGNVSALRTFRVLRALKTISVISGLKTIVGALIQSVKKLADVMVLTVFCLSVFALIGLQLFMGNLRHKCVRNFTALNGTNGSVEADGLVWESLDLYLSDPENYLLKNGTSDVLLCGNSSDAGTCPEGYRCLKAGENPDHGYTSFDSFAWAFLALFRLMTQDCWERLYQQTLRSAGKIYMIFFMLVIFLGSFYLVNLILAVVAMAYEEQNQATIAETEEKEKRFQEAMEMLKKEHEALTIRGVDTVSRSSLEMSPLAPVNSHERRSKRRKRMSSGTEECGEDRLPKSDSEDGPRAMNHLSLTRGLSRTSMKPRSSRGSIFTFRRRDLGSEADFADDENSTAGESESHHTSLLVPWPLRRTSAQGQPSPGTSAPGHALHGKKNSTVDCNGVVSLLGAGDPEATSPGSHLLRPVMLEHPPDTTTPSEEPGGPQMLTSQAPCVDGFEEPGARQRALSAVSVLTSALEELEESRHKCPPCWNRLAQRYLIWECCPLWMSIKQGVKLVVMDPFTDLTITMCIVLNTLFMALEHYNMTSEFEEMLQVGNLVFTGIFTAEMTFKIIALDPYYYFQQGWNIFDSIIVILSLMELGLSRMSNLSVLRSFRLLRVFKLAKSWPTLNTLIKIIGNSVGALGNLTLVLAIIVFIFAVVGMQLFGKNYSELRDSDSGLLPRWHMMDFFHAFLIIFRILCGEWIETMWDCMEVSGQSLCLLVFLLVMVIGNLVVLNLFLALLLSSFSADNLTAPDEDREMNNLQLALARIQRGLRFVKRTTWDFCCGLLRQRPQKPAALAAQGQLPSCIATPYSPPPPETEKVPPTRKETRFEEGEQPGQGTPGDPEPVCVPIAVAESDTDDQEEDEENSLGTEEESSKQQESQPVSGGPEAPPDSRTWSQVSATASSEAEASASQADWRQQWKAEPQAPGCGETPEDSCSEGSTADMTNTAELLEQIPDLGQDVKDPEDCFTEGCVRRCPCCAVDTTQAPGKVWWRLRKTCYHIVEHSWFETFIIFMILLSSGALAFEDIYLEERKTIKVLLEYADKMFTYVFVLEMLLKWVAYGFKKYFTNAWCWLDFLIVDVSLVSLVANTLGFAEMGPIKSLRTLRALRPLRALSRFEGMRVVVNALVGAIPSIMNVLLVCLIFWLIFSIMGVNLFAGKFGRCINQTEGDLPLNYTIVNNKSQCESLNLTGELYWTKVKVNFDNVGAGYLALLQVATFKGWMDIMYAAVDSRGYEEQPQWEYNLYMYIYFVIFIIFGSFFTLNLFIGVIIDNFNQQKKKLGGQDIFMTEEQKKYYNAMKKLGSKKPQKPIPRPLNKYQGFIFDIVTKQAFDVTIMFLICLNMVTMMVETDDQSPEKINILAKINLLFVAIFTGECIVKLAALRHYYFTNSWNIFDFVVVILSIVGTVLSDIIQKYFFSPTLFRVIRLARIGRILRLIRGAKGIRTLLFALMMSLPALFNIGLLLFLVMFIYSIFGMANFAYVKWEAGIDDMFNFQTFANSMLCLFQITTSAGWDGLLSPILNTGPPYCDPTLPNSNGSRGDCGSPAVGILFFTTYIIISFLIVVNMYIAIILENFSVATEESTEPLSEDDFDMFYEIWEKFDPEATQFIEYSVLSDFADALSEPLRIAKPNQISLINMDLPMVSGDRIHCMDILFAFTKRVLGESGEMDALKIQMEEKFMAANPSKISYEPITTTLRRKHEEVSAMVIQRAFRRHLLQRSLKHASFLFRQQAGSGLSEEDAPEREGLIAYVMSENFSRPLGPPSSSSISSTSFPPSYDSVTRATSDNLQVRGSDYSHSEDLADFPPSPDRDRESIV
Excerpt: Early drug discovery programs commonly assess hERG inhibition as the only indicator of potential cardiovascular safety concerns. Researchers have recently recommended a more rigorous evaluation of multiple cardiac ion channels to provide a more comprehensive cardiovascular risk assessment (Fermini, B., et al., A New Perspective in the Field of Cardiac Safety Testing through the Comprehensive In Vitro Proarrhythmia Assay Paradigm. J. Biomolec. Screening 2016, 21, 1-11). Given the promising initial results for 6, further evaluation was undertaken (in duplicate) in a Comprehensive in vitro Proarrhythmia Assay (CiPA) eight assay panel run on the QPatch HT (Sophion, Denmark) automated patch clamp system at three concentrations (3, 30, and 100 μM). All data were filtered for seal quality, seal drop, and current amplitude. A stock solution of the test compound at 30 mM concentration was prepared in DMSO.
The parameters measured were the degree of activation of inward current (charge) evoked on stepping to −15 mV from the test pulse. The peak and ramp current (charge) amplitude was calculated before and after compound addition and the amount of current (charge) was assessed by dividing the Test compound current (charge) by the Control current (charge). Control is the mean hNav1.5 late current (charge) collected 15 seconds at the end of the control; Test Compound is the mean hNav1.5 current (charge) collected in the presence of test compound at each concentration. Changes in charge were normalized to the maximum response of the EC50 of ATXII (positive control).

[6] = 100 μM
Procedure: Potential off-target pharmacology for compound 6 was also evaluated by screening in duplicate against a panel (Bowes, J., et al., Reducing Safety-Related Drug Attrition: The Use of in vitro Pharmacological Profiling. Nat. Rev. Drug Disc. 2012, 11, 909-922) of 44 receptors, enzymes, etc. Of the 44 potential targets, only five were inhibited by >50% at a concentration of 100 μM (Table 7).

in vitro = in vitro ADME; settings: pH 7.4, 1 μM, read-out: microsomal half-life
Procedure: The test compound at 1 μM was pre-incubated with pooled liver microsomes in phosphate buffer (pH 7.4) for 5 minutes in a 37° C. shaking water bath. The reaction was initiated by adding NADPH-generating mixture (NADP+, glucose-6-phospate, glucose-6-phosphate dehydrogenase) and incubated for 0, 15, 30, 45, and 60 minutes. The reaction was stopped by transferring aliquots of the incubation mixture to acetonitrile/methanol. Samples were centrifuged, and supernatants analyzed by LCMS. The half-life was calculated from the slope of the initial linear range of the logarithmic curve of compound remaining %) vs. time, assuming first order kinetics. In addition, the intrinsic clearance (Clint) was calculated from the half-life.

CYP2C19 = target: T2, CYP2C19 (Homo sapiens, UniProt P33261); experiment: CYP450 inhibition in human liver microsomes, CYP2C19; type: in vitro ADME; settings: 10 μM
T2 construct: incubated with human liver microsomes (mixed gender, pool of 50 donors, 0.1 mg/mL); from tissue; host or cells: human liver microsomes, pool of 50 donors
T2 sequence (P33261 whole entry): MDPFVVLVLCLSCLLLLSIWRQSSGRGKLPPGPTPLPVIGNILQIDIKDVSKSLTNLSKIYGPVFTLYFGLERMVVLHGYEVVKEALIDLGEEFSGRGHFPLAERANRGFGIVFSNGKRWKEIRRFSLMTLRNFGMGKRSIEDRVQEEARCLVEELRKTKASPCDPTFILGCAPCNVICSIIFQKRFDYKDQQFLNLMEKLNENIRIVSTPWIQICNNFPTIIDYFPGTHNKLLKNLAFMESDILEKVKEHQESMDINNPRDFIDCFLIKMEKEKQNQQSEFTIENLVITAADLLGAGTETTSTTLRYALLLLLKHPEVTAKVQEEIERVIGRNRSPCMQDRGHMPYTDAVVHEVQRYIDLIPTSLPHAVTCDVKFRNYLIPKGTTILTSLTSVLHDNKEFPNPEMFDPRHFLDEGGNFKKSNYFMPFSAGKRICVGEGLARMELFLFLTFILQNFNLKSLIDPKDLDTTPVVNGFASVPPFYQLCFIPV
Procedure: (§1) CYP450 inhibition assays was conducted using individual enzyme substrates and inhibitors instead of a cocktail to avoid interferences. CYP450 isoforms tested included the following: CYP1A2, CYP2B6, CYP2C8, CYP2C9, CYP2C19, CYP2D6, and CYP3A4. Each test compound was screened at a final concentration of 10 μM. Each test compound was incubated with human liver microsomes (mixed gender, pool of 50 donors, 0.1 mg/mL), CYP450-selective probe substrates, and co-factors (NADPH, MgCl2) in phosphate buffer (pH 7.4) for 10-30 min in a 96-well plate at 37° C. The reactions were stopped by transferring the reaction mixture to acetonitrile/methanol. Samples were mixed and centrifuged, and the supernatants analyzed by LC-MS/MS to quantify percent inhibition relative to vehicle control.

CYP2D6 = target: T3, CYP2D6 (Homo sapiens, UniProt P10635); experiment: CYP450 inhibition in human liver microsomes, CYP2D6; type: in vitro ADME; settings: 10 μM
T3 construct: incubated with human liver microsomes (mixed gender, pool of 50 donors, 0.1 mg/mL); from tissue; host or cells: human liver microsomes, pool of 50 donors
T3 sequence (P10635 whole entry): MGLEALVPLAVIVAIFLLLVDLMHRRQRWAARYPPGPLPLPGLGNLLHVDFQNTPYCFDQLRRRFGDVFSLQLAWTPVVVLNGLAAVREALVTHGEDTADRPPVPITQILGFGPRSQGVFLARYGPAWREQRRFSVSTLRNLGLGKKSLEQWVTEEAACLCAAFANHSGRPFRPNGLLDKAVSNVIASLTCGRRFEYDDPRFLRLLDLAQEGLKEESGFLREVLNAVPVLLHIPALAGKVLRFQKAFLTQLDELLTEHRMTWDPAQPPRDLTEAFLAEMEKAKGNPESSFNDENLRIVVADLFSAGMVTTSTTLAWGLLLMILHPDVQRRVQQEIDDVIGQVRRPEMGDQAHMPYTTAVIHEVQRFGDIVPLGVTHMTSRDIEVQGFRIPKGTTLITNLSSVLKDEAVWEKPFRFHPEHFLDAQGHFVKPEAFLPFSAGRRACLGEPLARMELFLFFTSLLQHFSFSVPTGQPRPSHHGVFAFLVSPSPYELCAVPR
Procedure: as §1

CYP3A4 = target: T4, CYP3A4 (Homo sapiens, UniProt P08684); experiment: CYP450 inhibition in human liver microsomes, CYP3A4; type: in vitro ADME; settings: both sexes
T4 construct: incubated with human liver microsomes (mixed gender, pool of 50 donors, 0.1 mg/mL); from tissue; host or cells: human liver microsomes, pool of 50 donors
T4 sequence (P08684 whole entry): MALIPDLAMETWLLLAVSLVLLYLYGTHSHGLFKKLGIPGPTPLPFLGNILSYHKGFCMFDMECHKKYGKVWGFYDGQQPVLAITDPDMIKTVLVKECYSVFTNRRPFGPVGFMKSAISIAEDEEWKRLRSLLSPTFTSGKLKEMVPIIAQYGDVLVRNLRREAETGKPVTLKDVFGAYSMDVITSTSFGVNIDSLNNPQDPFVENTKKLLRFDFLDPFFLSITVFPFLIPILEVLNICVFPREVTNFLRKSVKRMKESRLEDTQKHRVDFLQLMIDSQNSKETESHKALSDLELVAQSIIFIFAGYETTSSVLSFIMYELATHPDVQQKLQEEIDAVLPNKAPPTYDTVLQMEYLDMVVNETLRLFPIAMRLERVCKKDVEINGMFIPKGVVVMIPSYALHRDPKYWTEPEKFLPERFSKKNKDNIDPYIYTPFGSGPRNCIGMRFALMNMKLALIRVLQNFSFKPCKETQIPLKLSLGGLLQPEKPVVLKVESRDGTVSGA
Procedure: as §1, with “Each test compound was screened at a final concentration of 10 μM.” left out

[7] = liver microsomes, pH 7.4, probe midazolam, Exp. 1, read-out: CYP3A4 (midazolam hydroxylase) % of control (Exp. 1)
[8] = liver microsomes, pH 7.4, probe midazolam, Exp. 2, read-out: CYP3A4 (midazolam hydroxylase) % of control (Exp. 2)
[9] = liver microsomes, pH 7.4, probe midazolam, Exp. 3, read-out: CYP3A4 (midazolam hydroxylase) % of control (Exp. 3)

For `COc1ccc2ncc(F)c(CC[C@@]3(O)CO[C@@H]4[C@@H](NCc5cc6c(cn5)OCCO6)CO[C@@H]43)c2n1` [Compound 6, (3R, 3aS,6S,6aR)-6-(((2,3-dihydro-[1,4]dioxino[2,36-c]pyridin-7-yl)methyl)amnino)-3-(2-(3-fluoro-6-methoxy-1,5-naphthyridin-4-yl)ethyl)hexahydrofuro[3,2-b]furan-3-ol], the MIC [1] was 2 mg/L (≈ 4.01 µM), the MIC [2] was 2 mg/L (≈ 4.01 µM) and the MIC [3] was 64 mg/L (≈ 128 µM). The MIC [4] was 16 mg/L (≈ 32.1 µM), the “Navi1.5 Late (agonist - activation of late current)” value (shortened to “Navi1.5 Late”) ([5]; 3 μM) was 3.4% and the “Navi1.5 Late” value ([5]; 30 μM) was 7.7%. For the same molecule, the “Navi1.5 Late” value ([5]; 100 μM) was 17.0%, the “number of the 44 potential targets inhibited by >50%” value [6] was “five” and the half-life (in vitro; human microsomes) was 6 min. For the same molecule, the half-life (in vitro; mouse microsomes) was 3 min, the CYP2C19 inhibition (CYP2C19) was “Less than 50%” and the CYP2D6 inhibition (CYP2D6) was “Less than 50%”. The activity at 3 µM (CYP3A4; human liver microsomes, pH 7.4, probe midazolam (midazolam hydroxylase activity), Exp. 1, read-out: CYP3A4 (midazolam hydroxylase) % of control (Exp. 1)) was 74.3%, the activity at 3 µM (CYP3A4; human liver microsomes, pH 7.4, probe midazolam (midazolam hydroxylase activity), Exp. 2, read-out: CYP3A4 (midazolam hydroxylase) % of control (Exp. 2)) was 77.2% and the activity at 3 µM (CYP3A4; human liver microsomes, pH 7.4, probe midazolam (midazolam hydroxylase activity), Exp. 3, read-out: CYP3A4 (midazolam hydroxylase) % of control (Exp. 3)) was 60.4%. The activity at 10 µM (CYP3A4; human liver microsomes, pH 7.4, probe midazolam (midazolam hydroxylase activity), 10 μM, Exp. 3, read-out: CYP3A4 (midazolam hydroxylase) % of control (Exp. 3)) was 74.5%, the activity at 0.1 µM (CYP3A4; [7]) was 116% and the activity at 0.1 µM (CYP3A4; [8]) was 108%. For the same molecule, the activity at 0.1 µM (CYP3A4; [9]) was 97%, the activity at 0.3 µM (CYP3A4; [7]) was 89.9% and the activity at 0.3 µM (CYP3A4; [8]) was 113%. For the same molecule, the activity at 0.3 µM (CYP3A4; [9]) was 99.2%, the activity at 1 µM (CYP3A4; [7]) was 60.4% and the activity at 1 µM (CYP3A4; [8]) was 89.8%. For the same molecule, the activity at 1 µM (CYP3A4; [9]) was 89.9%, the activity at 10 µM (CYP3A4; liver microsomes, pH 7.4, probe midazolam, 10 μM, Exp. 1, read-out: CYP3A4 (midazolam hydroxylase) % of control (Exp. 1)) was 49.5% and the activity at 10 µM (CYP3A4; liver microsomes, pH 7.4, probe midazolam, 10 μM, Exp. 2, read-out: CYP3A4 (midazolam hydroxylase) % of control (Exp. 2)) was 82.3%. For the same molecule, the inhibition at 10 µM (CYP3A4; liver microsomes, pH 7.4, probe midazolam, 10 μM, screening assay) was 56% and the IC50 (CYP3A4; liver microsomes, pH 7.4, probe midazolam, concentration-response assay in triplicate) was over 10 µM.
